Measurements reported in patent publication US10167270B2, “Substituted quinazoline compounds and uses thereof for modulating glucocerebrosidase activity” (Northwestern University, priority 2015, dated 2019).
Entries after “also recorded” stand apart in the source; their conditions may differ. Where two headings read alike, the source gives them in different places.

How the values were obtained:
acid α-glucosidase (GAA) = acid α-glucosidase (GAA) (Homo sapiens (Human), UniProt P10253); assay: Enzyme selectivity assay, acid α-glucosidase; format: biochemical; details: up to 100 μM
From the text: (§1) Louis, Mo.). The recombinant wild-type GCase enzyme velaglucerase alfa ([…] Human Genetic Therapies, Inc.), acid α-glucosidase enzyme alglucosidase alfa (Lumizyme®, Genzyme Corporation), α-galactosidase A enzyme agalsidase beta (Fabrazyme®, Genzyme Corporation) were used in activity assays. […] The acid α-glucosidase and α-galactosidase A enzyme activity assay methods were similar to the GCase enzyme activity assay above with slight modifications.

wild-type GCase [1] = biological target: T1, wild-type GCase (Homo sapiens (Human), UniProt P04062); assay: GCase enzyme activity assay (4MU-β-Glc, no taurocholate); format: biochemical
T1 sequence (P04062 40-536): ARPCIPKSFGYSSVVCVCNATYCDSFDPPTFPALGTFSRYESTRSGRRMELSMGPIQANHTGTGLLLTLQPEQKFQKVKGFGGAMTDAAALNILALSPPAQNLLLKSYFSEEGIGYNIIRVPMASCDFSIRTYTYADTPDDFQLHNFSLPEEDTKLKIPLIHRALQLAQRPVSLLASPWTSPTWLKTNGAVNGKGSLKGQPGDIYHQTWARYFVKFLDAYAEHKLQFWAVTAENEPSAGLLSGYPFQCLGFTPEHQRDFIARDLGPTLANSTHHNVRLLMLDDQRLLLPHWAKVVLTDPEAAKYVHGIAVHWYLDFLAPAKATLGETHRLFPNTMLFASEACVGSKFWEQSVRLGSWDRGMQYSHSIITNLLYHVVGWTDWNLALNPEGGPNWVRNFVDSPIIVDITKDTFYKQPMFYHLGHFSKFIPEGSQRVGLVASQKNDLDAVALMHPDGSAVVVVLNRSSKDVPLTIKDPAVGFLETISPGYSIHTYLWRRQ
Procedure: In previous studies, high concentrations of taurocholate (4-10 mM) were used to improve the signal in GCase enzyme activity assays^16,27,28. […] Here we describe our modifications of the substituents on the quinazoline ring.
4-Methylumbelliferyl β-D-glucopyranoside (4MU-β-Glc), 4-methylumbelliferyl α-D-glucopyranoside,4-methylumbelliferyl α-D-galactopyranoside, and buffer components were purchased from Sigma-Aldrich (St. Louis, Mo.). The recombinant wild-type GCase enzyme velaglucerase alfa (Vpriv®, Shire Human Genetic Therapies, Inc.), acid α-glucosidase enzyme alglucosidase alfa (Lumizyme®, Genzyme Corporation), α-galactosidase A enzyme agalsidase beta (Fabrazyme®, Genzyme Corporation) were used in activity assays. […] A solution of 1 M sodium hydroxide and 1 M glycine (pH 10) was used as the stop solution for all three enzyme activity assays.
The compounds in DMSO solution (0.5 μL/well) were transferred to a black 96-well plate (the final titration started from 100 μM, a 12 or 24-point 2-fold dilution series). […] After 5 min of incubation at room temperature, the enzyme reaction was initiated by the addition of blue substrate (4MU-13-Glc) (33 μL/well). The final concentration of the blue substrate was 1.5 mM. The blue substrate reaction was terminated by the addition of 33 μL/well stop solution (1 M NaOH and 1 M glycine mixture, pH 10) after 30 min of incubation at 37° C. […] The selected compounds were further assayed under pH 5.0 and pH 7.0 to evaluate their selectivity under various pH conditions.

wild-type GCase [2] = biological target: T1, wild-type GCase; assay: Fluorescence thermal shift analysis; format: binding; details: for stabilization of GCase (melting point change): pH 5.0, in words
From the text: Compounds shown to act as pharmacological chaperones for GCase (or other lysosomal enzymes) also stabilize the enzyme against thermal denaturation. A fluorescent thermal shift assay was developed to evaluate the binding affinity of ligands with protein^30. […] The maximum thermal shift of these compounds corresponded to their inhibitory activity at pH 5.0.
A robotic pipeline in the High Throughput Analysis Laboratory (HTAL) was used for protein ligand screening by fluorescence thermal shift (FTS) analysis. The pipeline used a Mosquito robot (TTP Labtech) for protein dispensing and an Echo 550 (Labcyte) to add compounds. Thermal scanning coupled with fluorescence detection was performed on a real-time PCR machine CFX384 (Bio-Rad Laboratories). The assay was run in 384-well PCR plates, using 10 μL citric acid/K2HPO4 buffer (50 mM citric acid, 150 mM K2HPO4, pH 5.0) per well. The assay concentration for protein was 1 μM and that for Sypro Orange (Invitrogen) was 5×. Protein was premixed with Sypro Orange and dispensed to a plate first, and compounds were added. Final concentrations of compounds ranged from 0.5 to 200 μM. Then the plate was sealed with an optical seal, shaken, and centrifuged. The thermal scan was from 10 to 95° C. with a temperature ramp rate of 1.5° C./min. The fluorescence was recorded every 10 sec. Data analysis and report generation were performed using the in-house software excelFTS.

α-galactosidase A (GLA) = α-galactosidase A (GLA) (Homo sapiens (Human), UniProt P06280); assay: Enzyme selectivity assay, α-galactosidase A; format: biochemical; details: up to 100 μM
α-galactosidase A (GLA), sequence (P06280 32-429): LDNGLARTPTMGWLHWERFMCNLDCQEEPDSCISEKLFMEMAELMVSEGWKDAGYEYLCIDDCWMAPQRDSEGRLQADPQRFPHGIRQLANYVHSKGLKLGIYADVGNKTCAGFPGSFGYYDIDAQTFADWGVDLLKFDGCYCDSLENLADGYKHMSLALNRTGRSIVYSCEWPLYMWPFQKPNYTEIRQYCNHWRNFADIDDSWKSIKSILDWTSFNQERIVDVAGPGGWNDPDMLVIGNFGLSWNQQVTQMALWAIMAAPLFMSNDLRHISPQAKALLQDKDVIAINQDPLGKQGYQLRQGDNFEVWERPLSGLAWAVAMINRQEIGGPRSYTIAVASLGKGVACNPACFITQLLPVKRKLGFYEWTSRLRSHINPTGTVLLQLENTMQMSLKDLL
From the text: as §1

GCase [3] = biological target: T2, GCase (Homo sapiens (Human), UniProt P04062); assay: Fluorescence polarization assay; format: binding
T2 sequence (P04062 40-536): as the sequence (P04062 40-536) above
Procedure: The fluorescent probe 3 (25 nL/well, 50 nM final concentration) was transferred to a 384-well black plate using a Labcyte Echo 550 Liquid Handler system. The 25 μL/well enzyme dilutions with GCase enzyme activity buffer were added to the plate, which was shaken at room temperature in dark for 20 min. The final titration was 5 nM to 10 μM, 10 concentrations, 2 times dilution. The fluorescence polarization was measured in Molecular Devices Analyst GT with Ex=535 nm and Em=580 nm, G Factor=1.05.

GCase [4] = biological target: T2, GCase; assay: Enzyme kinetic assay (resorufin β-D-glucopyranoside); format: biochemical; details: substrate 30-150 μM
Procedure: We further tested compounds 4 and 11g by measuring GCase activity at various substrate concentrations (30-150 μM) and in the absence or presence of increasing concentrations of GCase inhibitors.
The substrate resorufin β-D-glucopyranoside was diluted to five concentrations, ranging from 30 to 150 μM. Seven concentrations of inhibitors (between 0.5- and 5-fold of IC50 value) and a DMSO control were added to the enzyme solution. The final enzyme concentration was 10 nM to give a linear reaction over 10 min. Enzyme kinetics were measured by the addition of 66 μL of substrate to a 96-well assay plate, followed by 33 μL of enzyme solution (with or without inhibitor) using a dispense module on a Biotek Synergy H1 multi-mode plate reader. The increase in product fluorescence was measured at 1 min intervals for 10 min in the plate reader. The rate of product formation was calculated by converting the fluorescence units to nanomoles of product per minute using a standard curve of the free fluorophore, resorufin.

[5] = biological target: T3, N370S mutant GCase in patient fibroblasts (Homo sapiens (Human), UniProt P04062, N370S); assay: GCase protein level in N370S fibroblasts by Western blot; format: cell-based; details: 3 days treatment
T3 sequence (P04062 40-536 N409S): as the sequence (P04062 40-536) above, with N370S counted along it
Procedure: (§2) The N370S fibroblast cell line was obtained from Coriell, GM00372, cultured in DMEM medium (Life Tech) including 1% v/v L-glutamine 200 mM (Life Tech), 1% v/v pen strep (Life Tech), 10% FBS (Life Tech) at 37° C. and 5% CO2 and treated with different compounds at 0.2 μM and 2 μM. After a 3-day treatment, cells were washed with inhibitor free media 3 times and fed with inhibitor free media for 1 day, followed by 1% Triton X-100 lysis buffer to lyse cells. Protein concentrations were measured with a Bradford kit (Thermo), and the GCase activity was determined at pH 5.5.
Proteins were denatured in 20% SDS sample buffer at 100° C. for 10 min; 10% Bis-Tris gel (Life Tech) was used for gels; Trans-Blot Turbo PVDF kit (Bio-Rad) was used for membrane transfer, and Chemidoc MP system (Bio-Rad) was used to analyze the blots.

[6] = biological target: T3, N370S mutant GCase in patient fibroblasts; assay: GCase activity in N370S fibroblasts after compound treatment; format: cell-based; details: 3-day treatment
Procedure: as §2

[7] = pH 5.0, mean ± SD, read-out: IC50 pH 5.0
[8] = pH 5.9, mean ± SD, read-out: IC50 pH 5.9
[9] = pH 7.0, mean ± SD, read-out: IC50 pH 7.0

Row | SMILES | activity of acid α-glucosidase on compound treatment (acid α-glucosidase (GAA)) | stabilization of GCase (melting point change) (wild-type GCase [2]) | activity of α-galactosidase A on compound treatment (α-galactosidase A (GLA)) | Kd (GCase [3]) [nM] | IC50 (wild-type GCase [1]; [7]) [nM] | IC50 (wild-type GCase [1]; [9]) [nM] | concentration of GCase protein [5] | other results
1 | c1cncc(-c2nc(N[C@@H]3CCc4ccccc4C3)c3ccccc3n2)c1 [Compound 9b] | not significantly changed | stabilize wild-type GCase in a dose-dependent manner; also recorded: increased the GCase melting point in a dose-dependent manner | not significantly changed |  |  |  |  | decrease of inhibitory activity at pH 5.0 compared to pH 5.9 (wild-type GCase [1]): 3 fold
2 | CN(C)c1ccc2c(-c3ccc(C(=O)NCCCCCC(=O)Nc4ccc(-c5nc(NC6Cc7ccccc7C6)c6ccccc6n5)cc4)cc3C(=O)O)c3ccc(=[N+](C)C)cc-3oc2c1 [compound 158] |  |  |  | 79 |  |  |  | 
3 | c1ccc2c(c1)CC(Nc1nc(-c3ccsc3)nc3ccccc13)C2 [Compound 11g, N-(2,3-dihydro-1H-inden-2-yl)-2-(thiophen-3-yl)quinazolin-4-amine] | not significantly changed | stabilize wild-type GCase in a dose-dependent manner; also recorded: increased the GCase melting point in a dose-dependent manner | not significantly changed |  | 8.9 ± 1.3 | 6.6 ± 1 | significantly increased the concentration of GCase | type of inhibition (Lineweaver-Burk) (GCase [4]): linear mixed inhibition; decrease of inhibitory activity at pH 5.0 compared to pH 5.9 (wild-type GCase [1]; pH 5.0 vs pH 5.9): only dropped slightly; IC50 (wild-type GCase [1]; [8]): 5.2 ± 0.6 nM; maximum thermal shift (wild-type GCase [2]; pH 5.0): around 11 °C; GCase activity in patient cells [6]: increased GCase activity
4 | c1ccc(-c2nc(NC3Cc4ccccc4C3)c3ccccc3n2)cc1 [Compound 11d, N-(2,3-dihydro-1H-inden-2-yl)-2-phenylquinazolin-4-amine] | not significantly changed | stabilize wild-type GCase in a dose-dependent manner; also recorded: increased the GCase melting point in a dose-dependent manner | not significantly changed |  | 10.5 ± 1.5 | 9.4 ± 1.4 | significantly increased the concentration of GCase | IC50 (wild-type GCase [1]; Table 5, pH 5.9, mean ± SD, read-out: IC50): 6.5 ± 0.7 nM
5 | OC[C@H]1CNC[C@@H](O)[C@@H]1O [IFG, Isofagomine, reference compound] |  | stabilize wild-type GCase in a dose-dependent manner |  |  |  |  | did not have an effect | GCase activity in patient cells [6]: had no effect
6 | CN(C)c1ccc2c(-c3ccc(C(=O)NCCOCCOCCOCCOCCC(=O)NCCCCCC(=O)Nc4ccc(-c5nc(NC6Cc7ccccc7C6)c6ccccc6n5)cc4)cc3C(=O)O)c3ccc(=[N+](C)C)cc-3oc2c1 [compound 160] |  |  |  | 7.1 |  |  |  | 
7 | CN(C)c1ccc2c(-c3ccc(C(=O)NCCOCCOCC(=O)Nc4ccc(-c5nc(NC6Cc7ccccc7C6)c6ccccc6n5)cc4)cc3C(=O)O)c3ccc(=[N+](C)C)cc-3oc2c1 [compound 159] |  |  |  | 126 |  |  |  | 
8 | c1csc(-c2nc(NC3Cc4ccccc4C3)c3ccccc3n2)c1 [Compound 11f, N-(2,3-dihydro-1H-inden-2-yl)-2-(thiophen-2-yl)quinazolin-4-amine] | not significantly changed | stabilize wild-type GCase in a dose-dependent manner; also recorded: increased the GCase melting point in a dose-dependent manner | not significantly changed |  | 13.9 ± 1.9 | 12.9 ± 2 | significantly increased the concentration of GCase | decrease of inhibitory activity at pH 5.0 compared to pH 5.9 (wild-type GCase [1]; pH 5.0 vs pH 5.9): only dropped slightly; IC50 (wild-type GCase [1]; [8]): 8.2 ± 1 nM
